Measurements taken from US9261497B2, “Method of treating cancer with modulators of SCFSkp2” (New York University, priority 2012, dated 2016).

How the values were obtained:
[1] = system: T47D; assay: Cell cycle FACS analysis, T47D; format: cell-based, human
Method: (§1) Whole cell extracts were prepared and immunoblotted as previously described Dorrello et al., “S6K1- and betaTRCP-mediated Degradation of PDCD4 Promotes Protein Translation and Cell Growth,” Science 314:467-471 (2006), which is hereby incorporated by reference in its entirety. For knockdown of Skp2 or p27, shRNAs were induced with 2 ng/ml doxycycline for 48 hours, with the last 16 hours co-treated with 0.1% Vehicle or 10 μM inhibitors as indicated. For cycloheximide chase, cells were pretreated 16 h with 0.1% Vehicle or 10 μM inhibitors, followed by 20 ng/ml cycloheximide (Sigma) and whole cell extracts collected for each time point. 20 ng/ml cycloheximide (Sigma) was added to each plate and whole cell extract was collected for each time point. Scanning densitometry was performed on immunoblots using Image J software. […] 1×10^6 cells were fixed in 70% ethanol for 2 h, treated with 200 μg/ml RNase A (Invitrogen) for 30 minutes, and stained with 20 μg/ml Propidium Iodine (Sigma). All samples were assayed in triplicates. Signal was detected using the Becton Dickson LSRII flow cytometer and cell cycle profiles were analyzed with FloJo.

[2] = system: SCF-βTrCP; assay: β-TrCP PDCD4 in vitro ubiquitylation counter-screen; format: biochemical; settings: 50 μM inhibitor
Method: In vitro reconstituted assays were performed as previously described (Dorrello et al., “S6K1- and betaTRCP-mediated Degradation of PDCD4 Promotes Protein Translation and Cell Growth,” Science 314:467-471 (2006), which is hereby incorporated by reference in their entirety) with the exceptions of the use of (1) unlabeled proteins (wild-type and mutant Skp2 and Cks1, p27, Flag-βTrCP, and HA-PDCD4) generated by in vitro transcription-translation (TNT T7 Coupled Reticulocyte Lysate System, Promega); (2) chain elongation with non-methylated ubiquitin; and (3) immunoblotting to detect poly-ubiquitylation. The following reagents were obtained from Boston Biochem: UBE1, His-UbcH3, His-UbcH5c, Ubiquitin, and Ubiquitin Aldehyde. Additional reagents include CDK2/CyclinE1 (Sigma-Aldrich), S6K (Invitrogen), Okadaic acid (Sigma), and DMSO (Sigma-Aldrich). For ubiquitin charging, UBE1 (100 nM) and His-UbcH3 (10 ng/μl) were incubated with ubiquitin (2.5 μg/μl), ATP (2 mM), and 10 μM […] of inhibitors or Vehicle control for 60 min at 30° C. Reactions were stopped in nondenaturing 2× Sample Buffer, with the addition of 10% Beta-mercaptoethanol as indicated, and analyzed by Western blotting.

[3] = system: 501 Mel cells; assay: Cell cycle FACS analysis, 501 Mel; format: cell-based, human; settings: shEmpty 501 Mel; 10 μM for 16 hours
Method: Whole cell extracts were prepared and immunoblotted as previously described Dorrello et al., “S6K1- and betaTRCP-mediated Degradation of PDCD4 Promotes Protein Translation and Cell Growth,” Science 314:467-471 (2006), which is hereby incorporated by reference in its entirety. For knockdown of Skp2 or p27, shRNAs were induced with 2 ng/ml doxycycline for 48 hours, with the last 16 hours co-treated with 0.1% Vehicle or 10 μM inhibitors as indicated. For cycloheximide chase, cells were pretreated 16 h with 0.1% Vehicle or 10 μM inhibitors, followed by 20 ng/ml cycloheximide (Sigma) and whole cell extracts collected for each time point. Scanning densitometry was performed on immunoblots using Image J software. For cell cycle analysis, cells were treated with 0.1% Vehicle or 10 μM inhibitors for 16 h. 1×10^6 cells were fixed in 70% ethanol for 2 h, treated with 200 μg/ml RNase A (Invitrogen) for 30 minutes, and stained with 20 μg/ml Propidium Iodine (Sigma). All samples were assayed in triplicates. Signal was detected using the Becton Dickson LSRII flow cytometer and cell cycle profiles were analyzed with FloJo.

[4] = system: MCF-7; assay: Cell cycle FACS analysis, MCF-7; format: cell-based, human
Method: as §1

[5] = system: Caspase 3 in ECC-1 cells; assay: ECC-1 apoptosis (Caspase 3 cleavage immunoblot); format: cell-based, human; settings: 10 μM, 18 h
Method: Whole cell lysates were prepared in ice cold RIPA buffer (50 mM Tris-HCL, 150 mM NaCl, 0.25% sodium deoxycholate, 1% NP-40 and 1 mM EDTA) containing 1 mM Na3VO4, pH 7.4) and 1× Protease Inhibitor Cocktail (Sigma Chem, St Louis, Mo.). Following freezing and thawing once, and soluble proteins obtained by centrifugation at 14,000×g for 10 min at 4° C. Protein concentrations were quantified (BCA kit, Thermo Scientific, Rockland, Ill.) and 20 μg protein in Laemmli buffer were subjected to SDS-PAGE (12.5% polyacrylamide) and immunoblotted using anti-p27 and anti-Skp2 antibodies to probe protein levels, as described (Lecanda et al., “TGFbeta Prevents Proteasomal Degradation of the Cyclin-dependent Kinase Inhibitor p27kip1 for Cell Cycle Arrest,” Cell Cycle 8:742-756 (2009), which is hereby incorporated by reference in its entirety). For subcellular fractionation, following treatments, cells were separated into nuclear and cytoplasmic fractions using the NE-PER kit (Thermo Scientific), and 10 μg cytoplasmic and nuclear protein fractions were loaded onto SDS-PAGE for immunoblotting. Following protein transfer onto nitrocellulose membranes, the membrane was blocked with 5% non-fat dry milk in TBS containing 0.1% Tween 20 (TBST) for 1 h, incubated overnight with mouse anti-human p27 (1:1000, Clone 57, BD Transduction Labs) or mouse anti-human p45/Skp2 (1:1000, Clone 8D9, Invitrogen, Grand Island, N.Y.) or rabbit anti-human Caspase-3 antibody (1:500, Clone 8G10, Cell Signaling Technology (Danvers, Mass.)). Purity of the subcellular fractions was confirmed using mouse anti-human α-tubulin (1:10,000, Clone B-5-1-2, Sigma) for cytoplasmic or rabbit anti-human Sp1 (1:1000, Clone H-225, Santa Cruz Biotechnology, Santa Cruz, Calif.) for nuclear fractions. The membranes were incubated with peroxidase-conjugated goat anti-rabbit or goat anti-mouse secondary antibodies in TBST (1:2000; Thermo Scientific).

Structure (SMILES) | G1 phase ([1]; 5 μM for 16 hours) | S phase ([1]; 5 μM for 16 hours) | β-TrCP activity (PDCD4 poly-ubiquitylation) [2] | S phase cells [3] | Increase in G2-M phase ([4]; 5 μM C1 for 16 hours) [%] | Reduction in G1 phase ([4]; 5 μM C1 for 16 hours) [%] | Cellular phenotype [1] | Caspase 3 cleavage (apoptosis) [5] | Cellular phenotype [4]
O=C(O)COc1ccc(Br)cc1C=C1SC(=S)N(Cc2cccnc2)C1=O [Compound C1] | an increase in G1 phase | a decrease in S phase | not blocked | a decrease in S phase cells | 43 | 35 | – | – | –
COC(=O)C1=C(C)N(c2ccc(Br)cc2)C(=O)C1=Cc1ccccc1O [Compound C2] | – | – | not blocked | a decrease in S phase cells | – | – | no significant cellular phenotype | activate caspase 3 to a similar extent as the control | no significant cellular phenotype
O=C(O)COc1ccc(C=C2SC(=O)N(CC(=O)c3ccc(Cl)cc3)C2=O)cc1 [Compound C16] | – | – | not blocked | a decrease in S phase cells | – | – | no significant cellular phenotype | shows cleavage of caspase 3 | no significant cellular phenotype
O=C(NN=Cc1cc(Br)cc(Br)c1O)C(=Cc1ccccc1O)NC(=O)c1ccccc1 [Compound C20] | – | – | not blocked | a decrease in S phase cells | – | – | no significant cellular phenotype | activate caspase 3 to a similar extent as the control | no significant cellular phenotype
